*1 amine or outer side, *2 acyl side, *3 side chain or, on linkers, in order; H or OH if unused. Where a SMILES comes first, the peptide text is derived from it. Side-chain parts run from the residue outwards. [ ]: non-standard residue; d: D form. The star is where a group is joined. C20 diacid = O=C(O)CCCCCCCCCCCCCCCCCCC(=O)*; αMePhe(2-F) = C[C@](N)(Cc1ccccc1F)C(=O)O; γGlu = O=C(O)[C@H](CCC(=O)[*:2])N[*:1]; 4Pal = N[C@@H](Cc1ccncc1)C(=O)O; αMeL = CC(C)C[C@](C)(N)C(=O)O; AEEA = NCCOCCOCC(=O)O; Aib = CC(C)(N)C(=O)O
How the values were obtained:
human GLP-1R = biological target: T1, human GLP-1R (Homo sapiens, UniProt P43220); test: [125I]-GLP-1 binding, SPA with WGA beads, 0.1% bacitracin; conditions: geometric mean, read-out: hGLP1R Ki
T1 construct: expressed in transfected cells; crude membranes
In short: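 Binding buffer was 25 mM HEPES pH 7.4 with 2.5 mM CaCl2, 1 mM MgCl2, 0.1% (w/v) bacitracin, 0.003% Tween-20 and EDTA-free protease inhibitors. Four-parameter regression gave IC50, converted to Ki (geometric mean, SEM, n independent days).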

human GcgR = biological target: T2, human GcgR (Homo sapiens, UniProt P47871); test: [125I]-Glucagon binding, SPA with WGA beads, 0.1% bacitracin; conditions: geometric mean, read-out: hGcgR Ki
T2 construct: expressed in transfected cells; crude membranes
In short: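 SPA competition binding with WGA beads on crude membranes from HEK293 cells stably expressing hGcgR. Buffer: 25 mM HEPES pH 7.4, 2.5 mM CaCl2, 1 mM MgCl2, 0.1% bacitracin, 0.003% Tween-20; 10-point 3-fold dilutions, NSB with 1 μM Gcg.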

human GIPR = biological target: T3, human GIPR (Homo sapiens, UniProt P48546); test: [125I]-GIP binding, SPA with WGA beads, 0.1% bacitracin; conditions: geometric mean, read-out: hGIPR Ki
T3 construct: expressed in transfected cells; crude membranes
T3 sequence (P48546 22-466): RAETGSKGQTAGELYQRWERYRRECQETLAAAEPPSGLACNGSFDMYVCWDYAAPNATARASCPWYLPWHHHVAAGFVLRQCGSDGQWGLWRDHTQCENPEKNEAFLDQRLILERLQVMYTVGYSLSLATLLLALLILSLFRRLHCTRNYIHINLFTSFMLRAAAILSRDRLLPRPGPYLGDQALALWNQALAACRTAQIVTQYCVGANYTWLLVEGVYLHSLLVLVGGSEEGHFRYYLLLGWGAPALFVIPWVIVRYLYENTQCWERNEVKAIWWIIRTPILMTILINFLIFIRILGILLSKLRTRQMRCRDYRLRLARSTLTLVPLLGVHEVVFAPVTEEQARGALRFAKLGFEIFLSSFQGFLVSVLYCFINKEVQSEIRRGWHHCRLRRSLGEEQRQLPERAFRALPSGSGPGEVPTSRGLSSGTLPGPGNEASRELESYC
In short: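 Ki values are geometric means (SEM, n independent days), derived from four-parameter nonlinear regression of IC50. Membranes came from hGIPR-expressing CHO cells.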

T1 sequence (P43220 24-463): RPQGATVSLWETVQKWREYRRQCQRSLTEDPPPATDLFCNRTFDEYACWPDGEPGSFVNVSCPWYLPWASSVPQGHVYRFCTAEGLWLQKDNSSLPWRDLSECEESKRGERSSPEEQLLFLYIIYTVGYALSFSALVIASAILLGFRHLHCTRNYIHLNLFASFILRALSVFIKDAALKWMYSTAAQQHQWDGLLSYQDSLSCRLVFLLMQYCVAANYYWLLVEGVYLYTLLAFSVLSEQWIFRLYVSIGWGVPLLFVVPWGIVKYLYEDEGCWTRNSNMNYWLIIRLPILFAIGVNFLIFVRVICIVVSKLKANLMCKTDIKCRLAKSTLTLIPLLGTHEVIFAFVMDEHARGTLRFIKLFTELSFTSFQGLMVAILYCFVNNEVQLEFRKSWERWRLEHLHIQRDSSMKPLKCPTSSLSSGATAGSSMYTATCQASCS
T2 sequence (P47871 26-477): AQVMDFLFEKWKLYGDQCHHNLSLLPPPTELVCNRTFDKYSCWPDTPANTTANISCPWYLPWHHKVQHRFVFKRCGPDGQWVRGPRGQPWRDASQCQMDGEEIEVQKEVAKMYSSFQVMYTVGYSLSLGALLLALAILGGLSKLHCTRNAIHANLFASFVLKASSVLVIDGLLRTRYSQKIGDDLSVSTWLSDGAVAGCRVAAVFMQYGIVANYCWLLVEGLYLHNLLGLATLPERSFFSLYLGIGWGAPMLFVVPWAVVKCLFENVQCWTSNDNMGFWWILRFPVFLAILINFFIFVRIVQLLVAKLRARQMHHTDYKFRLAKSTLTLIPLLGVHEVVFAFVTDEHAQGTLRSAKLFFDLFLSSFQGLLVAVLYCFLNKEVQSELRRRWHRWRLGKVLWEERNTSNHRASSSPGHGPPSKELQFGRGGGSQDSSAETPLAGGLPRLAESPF

With `CC[C@H](C)[C@H](NC(=O)[C@H](CO)NC(=O)[C@H](Cc1ccc(O)cc1)NC(=O)[C@H](CC(=O)O)NC(=O)[C@H](CO)NC(=O)[C@@H](NC(=O)[C@](C)(Cc1ccccc1F)NC(=O)[C@@H](NC(=O)CNC(=O)[C@H](CCC(=O)O)NC(=O)[C@H](C)NC(=O)[C@@H](Cc1ccc(O)cc1)NC(C)=O)[C@@H](C)O)[C@@H](C)CC)C(=O)N[C@@H](C)C(=O)N[C@@H](CC(C)C)C(=O)N[C@@H](CC(=O)O)C(=O)N[C@@H](CCCCN)C(=O)N[C@@H](CCCCNC(=O)COCCOCCNC(=O)COCCOCCNC(=O)CC[C@H](NC(=O)CCCCCCCCCCCCCCCCCCC(=O)O)C(=O)O)C(=O)N[C@@H](Cc1c[nH]cn1)C(=O)N[C@@H](CCC(N)=O)C(=O)NC(C)(C)C(=O)N[C@@H](CCC(=O)O)C(=O)N[C@@H](Cc1ccccc1)C(=O)N[C@H](C(=O)N[C@@H](CC(N)=O)C(=O)N[C@@H](Cc1ccc(O)cc1)C(=O)N[C@@H](CC(C)C)C(=O)N[C@@H](CC(C)C)C(=O)N[C@@H](CCC(=O)O)C(=O)NCC(=O)NCC(=O)N1CCC[C@H]1C(=O)N[C@@H](CO)C(=O)N[C@@H](CO)C(=O)NCC(=O)N[C@@H](C)C(=O)N1CCC[C@H]1C(=O)N1CCC[C@H]1C(=O)N1CCC[C@H]1C(=O)N[C@@H](CO)C(N)=O)C(C)C` [Example 33] (Ac-[dY]AEGT[αMePhe(2-F)]ISDYSIALDKK([AEEA-AEEA-γGlu-C20 diacid])HQ[Aib]EFVNYLLEGGPSSGAPPPS-NH2) the Ki (human GLP-1R) was 31.2 nM, the Ki (human GcgR) was 63.5 nM and the Ki (human GIPR) was 0.0369 nM.

With `CC[C@H](C)[C@H](NC(=O)[C@H](Cc1ccccc1)NC(=O)[C@@H](NC(=O)CNC(=O)[C@H](CCC(=O)O)NC(=O)C(C)(C)NC(=O)[C@@H](N)Cc1ccc(O)cc1)[C@@H](C)O)C(=O)N[C@@H](CO)C(=O)N[C@@H](CC(=O)O)C(=O)N[C@@H](Cc1ccc(O)cc1)C(=O)N[C@@H](CO)C(=O)N[C@H](C(=O)N[C@@](C)(CC(C)C)C(=O)N[C@@H](CC(C)C)C(=O)N[C@@H](CC(=O)O)C(=O)N[C@@H](CCCCN)C(=O)N[C@@H](CCCCNC(=O)COCCOCCNC(=O)COCCOCCNC(=O)CC[C@H](NC(=O)CCCCCCCCCCCCCCCCCCC(=O)O)C(=O)O)C(=O)N[C@@H](Cc1c[nH]cn1)C(=O)N[C@@H](CCC(N)=O)C(=O)NC(C)(C)C(=O)N[C@@H](CC(=O)O)C(=O)N[C@@H](Cc1ccccc1)C(=O)N[C@H](C(=O)N[C@@H](CCC(=O)O)C(=O)N[C@@H](Cc1ccc(O)cc1)C(=O)N[C@@H](CC(C)C)C(=O)N[C@@H](CC(C)C)C(=O)N[C@@H](CCC(=O)O)C(=O)N[C@@H](C)C(=O)NCC(=O)N1CCC[C@H]1C(=O)N[C@@H](CO)C(=O)N[C@@H](CO)C(=O)NCC(=O)N[C@@H](C)C(=O)N1CCC[C@H]1C(=O)N1CCC[C@H]1C(=O)N1CCC[C@H]1C(=O)N[C@@H](CO)C(N)=O)C(C)C)[C@@H](C)CC` [Example 68] (H-Y[Aib]EGTFISDYSI[αMeL]LDKK([AEEA-AEEA-γGlu-C20 diacid])HQ[Aib]DFVEYLLEAGPSSGAPPPS-NH2) the Ki (human GLP-1R) was 421 nM, the Ki (human GcgR) was 290 nM and the Ki (human GIPR) was 0.0948 nM.

In the case of `CC[C@H](C)[C@H](NC(=O)[C@H](Cc1ccccc1)NC(=O)[C@@H](NC(=O)CNC(=O)[C@H](CCC(=O)O)NC(=O)C(C)(C)NC(=O)[C@@H](N)Cc1ccc(O)cc1)[C@@H](C)O)C(=O)N[C@@H](CO)C(=O)N[C@@H](CC(=O)O)C(=O)N[C@@H](Cc1ccc(O)cc1)C(=O)N[C@@H](CO)C(=O)N[C@H](C(=O)N[C@@](C)(CC(C)C)C(=O)N[C@@H](CC(C)C)C(=O)N[C@@H](CC(=O)O)C(=O)N[C@@H](CCCCN)C(=O)N[C@@H](CCCCNC(=O)COCCOCCNC(=O)COCCOCCNC(=O)CC[C@H](NC(=O)CCCCCCCCCCCCCCCCCCC(=O)O)C(=O)O)C(=O)N[C@@H](Cc1c[nH]cn1)C(=O)N[C@@H](CCC(N)=O)C(=O)NC(C)(C)C(=O)N[C@@H](CCC(=O)O)C(=O)N[C@@H](Cc1ccccc1)C(=O)N[C@H](C(=O)N[C@@H](CCC(=O)O)C(=O)N[C@@H](Cc1ccncc1)C(=O)N[C@@H](CC(C)C)C(=O)N[C@@H](CC(C)C)C(=O)N[C@@H](C)C(=O)N[C@@H](C)C(=O)NCC(=O)N1CCC[C@H]1C(=O)N[C@@H](CO)C(=O)N[C@@H](CO)C(=O)NCC(=O)N[C@@H](C)C(=O)N1CCC[C@H]1C(=O)N1CCC[C@H]1C(=O)N1CCC[C@H]1C(=O)N[C@@H](CO)C(N)=O)C(C)C)[C@@H](C)CC` [Example 59], the Ki (human GLP-1R) is reported as 109 nM, the Ki (human GcgR) is reported as 230 nM and the Ki (human GIPR) is reported as 0.0148 nM.

`CC[C@H](C)[C@H](NC(=O)[C@H](CO)NC(=O)[C@H](Cc1ccc(O)cc1)NC(=O)[C@H](CC(=O)O)NC(=O)[C@H](CO)NC(=O)[C@@H](NC(=O)[C@](C)(Cc1ccccc1F)NC(=O)[C@@H](NC(=O)CNC(=O)[C@H](CCC(=O)O)NC(=O)C(C)(C)NC(=O)[C@@H](N)Cc1ccc(O)cc1)[C@@H](C)O)[C@@H](C)CC)C(=O)N[C@@H](C)C(=O)N[C@@H](CC(C)C)C(=O)N[C@@H](CC(=O)O)C(=O)N[C@@H](CCCCN)C(=O)N[C@@H](CCCCNC(=O)COCCOCCNC(=O)COCCOCCNC(=O)CC[C@H](NC(=O)CCCCCCCCCCCCCCCCCCC(=O)O)C(=O)O)C(=O)N[C@@H](Cc1c[nH]cn1)C(=O)N[C@@H](CCC(N)=O)C(=O)NC(C)(C)C(=O)N[C@@H](CC(=O)O)C(=O)N[C@@H](Cc1ccccc1)C(=O)N[C@H](C(=O)N[C@@H](CCC(=O)O)C(=O)N[C@@H](Cc1c[nH]c2ccccc12)C(=O)N[C@@H](CC(C)C)C(=O)N[C@@H](CC(C)C)C(=O)N[C@@H](CCC(=O)O)C(=O)N[C@H](C(=O)NCC(=O)N1CCC[C@H]1C(=O)N[C@@H](CO)C(=O)N[C@@H](CO)C(=O)NCC(=O)N[C@@H](C)C(=O)N1CCC[C@H]1C(=O)N1CCC[C@H]1C(=O)N1CCC[C@H]1C(=O)N[C@@H](CO)C(N)=O)[C@@H](C)O)C(C)C` [Example 40] (H-Y[Aib]EGT[αMePhe(2-F)]ISDYSIALDKK([AEEA-AEEA-γGlu-C20 diacid])HQ[Aib]DFVEWLLETGPSSGAPPPS-NH2) gave a Ki (human GLP-1R) of 302 nM, a Ki (human GcgR) of 50.9 nM and a Ki (human GIPR) of 0.0594 nM.

In the case of `CC[C@H](C)[C@H](NC(=O)[C@H](Cc1ccccc1)NC(=O)[C@@H](NC(=O)CNC(=O)[C@H](CCC(=O)O)NC(=O)C(C)(C)NC(=O)[C@@H](N)Cc1ccc(O)cc1)[C@@H](C)O)C(=O)N[C@@H](CO)C(=O)N[C@@H](CC(=O)O)C(=O)N[C@@H](Cc1ccc(O)cc1)C(=O)N[C@@H](CO)C(=O)N[C@H](C(=O)N[C@@](C)(CC(C)C)C(=O)N[C@@H](CC(C)C)C(=O)N[C@@H](CC(=O)O)C(=O)N[C@@H](CCCCN)C(=O)N[C@@H](CCCCNC(=O)COCCOCCNC(=O)COCCOCCNC(=O)CC[C@H](NC(=O)CCCCCCCCCCCCCCCCCCC(=O)O)C(=O)O)C(=O)N[C@@H](Cc1c[nH]cn1)C(=O)N[C@@H](CCC(N)=O)C(=O)NC(C)(C)C(=O)N[C@@H](CCC(=O)O)C(=O)N[C@@H](Cc1ccccc1)C(=O)N[C@H](C(=O)N[C@@H](CCC(=O)O)C(=O)N[C@@H](Cc1ccc(O)cc1)C(=O)N[C@@H](CC(C)C)C(=O)N[C@@H](CC(C)C)C(=O)N[C@@H](CCC(=O)O)C(=O)N[C@@H](CCC(N)=O)C(=O)NCC(=O)N1CCC[C@H]1C(=O)N[C@@H](CO)C(=O)N[C@@H](CO)C(=O)NCC(=O)N[C@@H](C)C(=O)N1CCC[C@H]1C(=O)N1CCC[C@H]1C(=O)N1CCC[C@H]1C(=O)N[C@@H](CO)C(N)=O)C(C)C)[C@@H](C)CC` [Example 63] (H-Y[Aib]EGTFISDYSI[αMeL]LDKK([AEEA-AEEA-γGlu-C20 diacid])HQ[Aib]EFVEYLLEQGPSSGAPPPS-NH2), the Ki (human GLP-1R) is reported as 327 nM, the Ki (human GcgR) is reported as 185 nM and the Ki (human GIPR) is reported as 0.0248 nM.

For `CC[C@H](C)[C@H](NC(=O)[C@H](CO)NC(=O)[C@H](Cc1ccc(O)cc1)NC(=O)[C@H](CC(=O)O)NC(=O)[C@H](CO)NC(=O)[C@@H](NC(=O)[C@](C)(Cc1ccccc1F)NC(=O)[C@@H](NC(=O)CNC(=O)[C@H](CCC(=O)O)NC(=O)C(C)(C)NC(=O)[C@@H](N)Cc1ccc(O)cc1)[C@@H](C)O)[C@@H](C)CC)C(=O)N[C@@H](C)C(=O)N[C@@H](CC(C)C)C(=O)N[C@@H](CC(=O)O)C(=O)N[C@@H](CCCCN)C(=O)N[C@@H](CCCCNC(=O)COCCOCCNC(=O)COCCOCCNC(=O)CC[C@H](NC(=O)CCCCCCCCCCCCCCCCCCC(=O)O)C(=O)O)C(=O)N[C@@H](Cc1c[nH]cn1)C(=O)N[C@@H](CCC(N)=O)C(=O)NC(C)(C)C(=O)N[C@@H](CC(=O)O)C(=O)N[C@@H](Cc1ccccc1)C(=O)N[C@H](C(=O)N[C@@H](CCC(=O)O)C(=O)N[C@@H](Cc1ccncc1)C(=O)N[C@@H](CC(C)C)C(=O)N[C@@H](CC(C)C)C(=O)N[C@@H](CCC(=O)O)C(=O)N[C@H](C(=O)NCC(=O)N1CCC[C@H]1C(=O)N[C@@H](CO)C(=O)N[C@@H](CO)C(=O)NCC(=O)N[C@@H](C)C(=O)N1CCC[C@H]1C(=O)N1CCC[C@H]1C(=O)N1CCC[C@H]1C(=O)N[C@@H](CO)C(N)=O)[C@@H](C)O)C(C)C` [Example 38] (H-Y[Aib]EGT[αMePhe(2-F)]ISDYSIALDKK([AEEA-AEEA-γGlu-C20 diacid])HQ[Aib]DFVE[4Pal]LLETGPSSGAPPPS-NH2), the Ki (human GLP-1R) was 776 nM, the Ki (human GcgR) was 182 nM and the Ki (human GIPR) was 0.0588 nM.

Source: patent US12723063B2, “GIPR-agonist compounds” (Eli Lilly and Company, priority 2019, dated 2026)
